From patent publication US6916812B2, “Alpha-aminoamide derivatives as melanocortin agonists” (Bristol-Myers Squibb Company, priority 2001, dated 2005) come the findings set out here.

pIC50: −log10 of the molar value. Like-named read-outs stand apart in the source and are kept apart here.

This assay has as its target T1, cloned human MC4R (Homo sapiens, UniProt P32245).
T1 construct: made in house; host or cells: Hi5 insect cells (baculovirus infection); membrane preparation
The experiment in a line: Membrane binding assay: competitive inhibition of [125I]NDP-α-MSH binding. As to conditions: for inhibition at 10 µM: read-out: Displacement Rate (%) (at 10 μM); for pIC50: read-out: MC4R IC50.

The mark [1] stands for this setting: at 10 μM, [125I]NDP-α-MSH displacement.

T1 sequence (P32245 whole entry): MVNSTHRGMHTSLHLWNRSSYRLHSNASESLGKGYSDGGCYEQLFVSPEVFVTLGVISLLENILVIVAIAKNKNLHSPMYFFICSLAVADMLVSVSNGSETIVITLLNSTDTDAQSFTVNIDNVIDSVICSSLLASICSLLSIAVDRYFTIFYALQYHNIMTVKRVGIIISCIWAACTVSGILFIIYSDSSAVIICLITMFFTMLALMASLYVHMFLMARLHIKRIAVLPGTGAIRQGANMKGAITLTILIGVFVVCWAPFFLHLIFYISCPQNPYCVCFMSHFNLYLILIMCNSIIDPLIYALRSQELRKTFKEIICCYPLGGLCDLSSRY

As to `CCCCCCCCOc1ccc(CN2CCCN(C(=O)[C@@H](N)Cc3ccc(OCc4ccccc4)cc3)CC2)cc1` [Example 14], the pIC50 – broadly, −log10 of the IC50, conventionally taken in molar units – is greater than 5.82. The inhibition at 10 µM under setting [1] lay in the range of 91 to 100%. Take `N[C@@H](Cc1ccc(-c2ccc(OC(F)(F)F)cc2)cc1)C(=O)N1CCN(Cc2cccc(Cl)c2Cl)CC1` [Example 292]: the pIC50 is greater than 5.82. In addition, under setting [1], the inhibition at 10 µM fell in the range of 91 to 100%.

In the case of `N[C@@H](Cc1ccc(OCc2ccc(Cl)c([N+](=O)[O-])c2)cc1)C(=O)N1CCN(Cc2cccc(Cl)c2Cl)CC1` [Example 219], the negative logarithm of the IC50 (pIC50) is greater than 5.82. Further, the “Displacement Rate (%) (at 10 μM)” value under setting [1] is listed as “+++ (+++ = 91-100)”.

In the case of `N[C@@H](Cc1ccc(OCc2ccccc2)cc1)C(=O)N1CCN(Cc2c(F)cccc2Cl)CC1` [Example 140], the pIC50 is less than 5.52. In addition, the inhibition at 10 µM under setting [1] lay within 35 to 70%. On the same counts, the results for `CCCCc1ccc(CN2CCN(C(=O)[C@@H](N)Cc3ccc(OCc4ccccc4)cc3)CC2)cc1` [Example 96] are greater than 5.82 and 91 to 100%. On the same counts, the results for `N[C@@H](Cc1ccc(-c2cc(C(F)(F)F)cc(C(F)(F)F)c2)cc1)C(=O)N1CCN(Cc2cccc(Cl)c2Cl)CC1` [Example 297] are greater than 5.82 and 91 to 100%. In the same order, the values of `COc1cccc(CC(C)N2CCCN(C(=O)[C@@H](N)Cc3ccc(OCc4ccccc4)cc3)CC2)c1` (some centres unmarked) [Example 63] are less than 5.52 and 35 to 70%. Regarding `N[C@@H](Cc1ccc(OCc2ccccc2)cc1)C(=O)N1CCCN(Cc2ccc([N+](=O)[O-])cc2)CC1` [Example 61], the pIC50 is less than 5.52. In addition, under setting [1], the inhibition at 10 µM was 35 to 70%. In the same order, the values of `N[C@@H](Cc1ccc(OCc2ccccc2)cc1)C(=O)N1CCCN(Cc2ccc3c(c2)OCCO3)CC1` [Example 70] are less than 5.52 and 35 to 70%. In the same order, the values of `Cc1cccc(CN2CCCN(C(=O)[C@@H](N)Cc3ccc(OCc4ccccc4)cc3)CC2)n1` [Example 69] are less than 5.52 and 35 to 70%. In the same order, the values of `CC(C)(C)c1ccc(Oc2cccc(CN3CCN(C(=O)[C@@H](N)Cc4ccc(OCc5ccccc5)cc4)CC3)c2)cc1` [Example 80] are greater than 5.82 and 91 to 100%.

Consider `N[C@@H](Cc1ccc(OCCc2ccccc2)cc1)C(=O)N1CCN(Cc2cccc(Cl)c2Cl)CC1` [Example 238], for which the pIC50 is greater than 5.82. In addition, the “Displacement Rate (%) (at 10 μM)” value under setting [1] is “+++ (+++ = 91-100)”. On to `N[C@@H](Cc1ccc(OCc2ccccc2)cc1)C(=O)N1CCN(Cc2ccc([N+](=O)[O-])cc2)CC1` [Example 149], for which the pIC50 is less than 5.52. Moreover, under setting [1], the inhibition at 10 µM lay in the range of 35 to 70%. Consider `Cc1cccc(-c2ccc(C[C@H](N)C(=O)N3CCN(Cc4cccc(Cl)c4Cl)CC3)cc2)c1` [Example 318], for which the pIC50 is 5.52 to 5.82. Also, the inhibition at 10 µM under setting [1] lay within 91 to 100%. On the same counts, the results for `N[C@@H](Cc1ccc(OCc2ccccc2)cc1)C(=O)N1CCN(Cc2cn(Cc3ccccc3)c3ccccc23)CC1` [Example 87] are greater than 5.82 and 91 to 100%. As for `N[C@@H](Cc1ccc(OCc2ccccc2)cc1)C(=O)N1CCCN(C2CCC(c3ccccc3)CC2)CC1` (some centres unmarked) [Example 41], the negative-log IC50 (pIC50) is less than 5.52. Also, the inhibition at 10 µM under setting [1] was 71 to 90%. On to `N[C@@H](Cc1ccc(OCc2ccccc2)cc1)C(=O)N1CCN(Cc2ccc3c(c2)OCCO3)CC1` [Example 156], for which the pIC50 was less than 5.52. In addition, under setting [1], the inhibition at 10 µM was in the range of 35 to 70%. On the same counts, the results for `CCCCCOc1ccc(CN2CCN(C(=O)[C@@H](N)Cc3ccc(OCc4ccccc4)cc3)CC2)cc1` [Example 99] are greater than 5.82 and 91 to 100%. On the same counts, the results for `N[C@@H](Cc1ccc(-c2cccc(F)c2)cc1)C(=O)N1CCN(Cc2cccc(Cl)c2Cl)CC1` [Example 311] are greater than 5.82 and 91 to 100%.

Turning to `N[C@@H](Cc1ccc(OCc2ccccc2)cc1)C(=O)N1CCN(Cc2ccc(OCc3ccc([N+](=O)[O-])cc3)cc2)CC1` [Example 110], the negative-log IC50 (pIC50) is greater than 5.82. For the same compound, under setting [1], the inhibition at 10 µM was in the range of 71 to 90%. For `N[C@@H](Cc1ccc(OCCc2ccc(OCc3ccccc3)cc2)cc1)C(=O)N1CCN(Cc2cccc(Cl)c2Cl)CC1` [Example 251], the negative-log IC50 (pIC50) was greater than 5.82. Moreover, the “Displacement Rate (%) (at 10 μM)” value under setting [1] was “+++ (+++ = 91-100)”. On to `O=C([C@H](Cc1ccc(OCc2ccccc2)cc1)NCCCN1CCOCC1)N1CCN(Cc2cccc(Cl)c2Cl)CC1` [Example 173], for which the negative-log IC50 (pIC50) was greater than 5.82. In addition, the inhibition at 10 µM under setting [1] was 91 to 100%. For the compound `N[C@@H](Cc1ccc(OCc2ccc(C(F)(F)F)cc2)cc1)C(=O)N1CCN(Cc2cccc(Cl)c2Cl)CC1` [Example 181], the negative-log IC50 (pIC50) is greater than 5.82. For the same compound, under setting [1], the “Displacement Rate (%) (at 10 μM)” value was “+++ (+++ = 91-100)”. On the same counts, the results for `N[C@@H](Cc1ccc(OCc2ccccc2-c2ccccc2)cc1)C(=O)N1CCN(Cc2cccc(Cl)c2Cl)CC1` [Example 214] are greater than 5.82 and “+++ (+++ = 91-100)”.

`N[C@@H](Cc1ccc(OCc2ccccc2)cc1)C(=O)N1CCCN(Cc2ccc(C(c3ccccc3)c3ccccc3)cc2)CC1` [Example 1]: the pIC50 is greater than 5.82. Further, the inhibition at 10 µM under setting [1] lay within 91 to 100%. In the same order, the values of `N[C@@H](Cc1ccc(OCc2ccccc2)cc1)C(=O)N1CCCN(Cc2ccc(-c3cccc([N+](=O)[O-])c3)o2)CC1` [Example 21] are 5.52 to 5.82 and 91 to 100%.

On to `N[C@@H](Cc1ccc(-c2cccc3c2Sc2ccccc2O3)cc1)C(=O)N1CCN(Cc2cccc(Cl)c2Cl)CC1` [Example 335], for which the inhibition at 10 µM was 91 to 100% and the pIC50 was greater than 5.82. On to `N[C@@H](Cc1ccc(OCc2ccccc2)cc1)C(=O)N1CCCN(Cc2cccc(Oc3cccc(C(F)(F)F)c3)c2)CC1` [Example 16], for which the pIC50 is greater than 5.82. The inhibition at 10 µM under setting [1] fell in the range of 91 to 100%. On the same counts, the results for `COc1ccc(CCC(C)N2CCN(C(=O)[C@@H](N)Cc3ccc(OCc4ccccc4)cc3)CC2)cc1` (some centres unmarked) [Example 132] are less than 5.52 and 35 to 70%. On the same counts, the results for `N[C@@H](Cc1ccc(-c2ccccc2F)cc1)C(=O)N1CCN(Cc2cccc(Cl)c2Cl)CC1` [Example 309] are greater than 5.82 and 91 to 100%.

Regarding `N[C@@H](Cc1ccc(OCc2ccccc2)cc1)C(=O)N1CCN(Cc2cc([N+](=O)[O-])ccc2Cl)CC1` [Example 134], the inhibition at 10 µM is 35 to 70% and the pIC50 was 5.52 to 5.82. For the compound `N[C@@H](Cc1ccc(OCCc2cccc(F)c2)cc1)C(=O)N1CCN(Cc2cccc(Cl)c2Cl)CC1` [Example 240], the pIC50 was greater than 5.82. Moreover, the “Displacement Rate (%) (at 10 μM)” value under setting [1] is recorded as “+++ (+++ = 91-100)”. Turning to `N[C@@H](Cc1ccc(Oc2ccccc2)cc1)C(=O)N1CCN(Cc2cccc(Cl)c2Cl)CC1` [Example 344], the negative-log IC50 (pIC50) was less than 5.52. For the compound `CC(C)(C)c1ccc(CN2CCCN(C(=O)[C@@H](N)Cc3ccc(OCc4ccccc4)cc3)CC2)cc1` [Example 39], the negative-log IC50 (pIC50) is 5.52 to 5.82. The inhibition at 10 µM under setting [1] fell in the range of 71 to 90%. On to `N[C@@H](Cc1ccc(-c2ccsc2)cc1)C(=O)N1CCN(Cc2cccc(Cl)c2Cl)CC1` [Example 339], for which the inhibition at 10 µM was 91 to 100% and the negative-log IC50 (pIC50) is greater than 5.82. For `N[C@@H](Cc1ccc(OCc2ccccc2)cc1)C(=O)N1CCCN(Cc2ccc(Oc3ccccc3)cc2)CC1` [Example 33], the pIC50 is 5.52 to 5.82. Under setting [1], the inhibition at 10 µM lay in the range of 71 to 90%. In the same order, the values of `N[C@@H](Cc1ccc(OCc2ccccc2)cc1)C(=O)N1CCCN(Cc2ccnc3ccccc23)CC1` [Example 37] are less than 5.52 and 71 to 90%. In the same order, the values of `O=C([C@H](Cc1ccc(OCc2ccccc2)cc1)NCCN1CCOCC1)N1CCN(Cc2cccc(Cl)c2Cl)CC1` [Example 172] are 5.52 to 5.82 and 71 to 90%. On the same counts, the results for `N[C@@H](Cc1ccc(OCc2ccccc2)cc1)C(=O)N1CCN(Cc2ccc(-c3ccc(Cl)cc3)o2)CC1` [Example 81] are greater than 5.82 and 91 to 100%. Turning to `N[C@@H](Cc1ccc(OCc2c(F)cccc2F)cc1)C(=O)N1CCN(Cc2cccc(Cl)c2Cl)CC1` [Example 205], the negative-log IC50 (pIC50) was 5.52 to 5.82. Further, the “Displacement Rate (%) (at 10 μM)” value under setting [1] is listed as “+++ (+++ = 91-100)”. On the same counts, the results for `N[C@@H](Cc1ccc(OCc2ccc(Cl)c(Cl)c2)cc1)C(=O)N1CCN(Cc2cccc(Cl)c2Cl)CC1` [Example 204] are greater than 5.82 and “+++ (+++ = 91-100)”.

As to `N[C@@H](Cc1ccc(OCCc2cccc3ccccc23)cc1)C(=O)N1CCN(Cc2cccc(Cl)c2Cl)CC1` [Example 244], the pIC50 is greater than 5.82. Moreover, the “Displacement Rate (%) (at 10 μM)” value under setting [1] was “+++ (+++ = 91-100)”.

Turning to `N[C@@H](Cc1ccc(OCCCc2ccccc2)cc1)C(=O)N1CCN(Cc2cccc(Cl)c2Cl)CC1` [Example 261], the negative-log IC50 (pIC50) was greater than 5.82. Besides, the “Displacement Rate (%) (at 10 μM)” value under setting [1] was “+++ (+++ = 91-100)”.

In the case of `COc1cccc(CCOc2ccc(C[C@H](N)C(=O)N3CCN(Cc4cccc(Cl)c4Cl)CC3)cc2)c1` [Example 243], the pIC50 was greater than 5.82. Besides, under setting [1], the inhibition at 10 µM was 91 to 100%. `COc1cccc(CN2CCCN(C(=O)[C@@H](N)Cc3ccc(OCc4ccccc4)cc3)CC2)c1OC` [Example 54]: the negative-log IC50 (pIC50) is less than 5.52. In addition, the inhibition at 10 µM under setting [1] fell in the range of 35 to 70%.

As for `N[C@@H](Cc1ccc(OCc2ccccc2)cc1)C(=O)N1CCCN(C2CCN(CCc3ccccc3)CC2)CC1` [Example 68], the negative-log IC50 (pIC50) is less than 5.52. Under setting [1], the inhibition at 10 µM was 35 to 70%. For `N[C@@H](Cc1ccc(OCc2ccccc2)cc1)C(=O)N1CCCN(Cc2ccc(C(F)(F)F)cc2)CC1` [Example 25], the negative logarithm of the IC50 (pIC50) was greater than 5.82. Further, under setting [1], the inhibition at 10 µM lay in the range of 91 to 100%. Turning to `COc1ccc(COc2ccc(C[C@H](N)C(=O)N3CCN(Cc4cccc(Cl)c4Cl)CC3)cc2)c(OC)c1` [Example 228], the negative-log IC50 (pIC50) was less than 5.52. The “Displacement Rate (%) (at 10 μM)” value under setting [1] is “++ (++ = 71-90)”.
